Data on 12 compounds can be found in article PMC7531004, “Discovery of gramicidin A analogues with altered activities by multidimensional screening of a one-bead-one-compound library” (Nature Communications, 2020).

Where a SMILES comes first, the peptide text is derived from it. [ ]: non-standard residue; d: D form. The star is where a group is joined. NHCH2CH2OH = OCCN*; For = O=C*

The viability is a per cent measure of how many cells are alive, often set against a control.

Data set [1] in a line: H+/Na+ transport assay of bead-derived peptides (one-point).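 Further: relative to parent gramicidin A activity set to 1.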 The format is biochemical. The arrangement: key: relative activity; mean of two control wells = 1.00. The following applies: bead-derived peptide solution, EYPC/EYPG LUVs. A digest of the protocol:
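One-point screen: peptide + pyranine-loaded LUVs, 30 min RT with vortexing, 96-well. Read-out is fluorescence intensity scaled as 100 × (Ix – I0)/(Imax – I0). Imax from Triton X-100, I0 from untreated vesicles, and the mean of the two control wells is set to 1.00.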

For data set [2] the following is noted: cell viability/%. The procedure, abridged:
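P388 cells at 1 × 10^4 cells/mL (final) were exposed to library peptides (stocks diluted 250-fold in RPMI1640/10% FBS) for 92 h at 37 °C, 5% CO2. Viable cells were counted by WST-1/1-methoxy PMS (4 h), absorbance 415 nm, and expressed as cell viability (%).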

Data set [3] relates to Streptococcus pyogenes SSI-9. Briefly: Antibacterial activity assay of bead-derived peptides (three concentrations). The format is cell-based. Particulars: S. pyogenes, bead-derived peptide solution, three concentrations. The arrangement: key: +++: inhibition by the 640-fold diluted peptide solution; ++: inhibition by the 160-fold diluted solution; +: inhibition by the 40-fold diluted solution; -: no inhibition. A digest of the protocol:
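Undiluted, 4-fold and 16-fold DMSO-diluted peptide stocks; S. pyogenes SSI-9, 2 × 10^5 CFU, cation-adjusted MHB (50 mg/L Ca2+, 25 mg/L Mg2+) + 5% laked horse blood; 37 °C, 18 h; readout = cell pellet visible or not.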

Take `CNC(=O)C[C@@H](NC(=O)[C@H](C)NC(=O)[C@@H](CC(C)C)NC(=O)[C@H](C)NC(=O)CNC(=O)[C@@H](NC=O)C(C)C)C(=O)N[C@H](C(=O)N[C@@H](C(=O)N[C@@H](Cc1c[nH]c2ccccc12)C(=O)N[C@@H](C(=O)N[C@@H](Cc1c[nH]c2ccccc12)C(=O)N[C@H](CC(C)C)C(=O)N[C@@H](Cc1c[nH]c2ccccc12)C(=O)N[C@@H](C(=O)N[C@@H](Cc1c[nH]c2ccccc12)C(=O)NCCO)C(C)C)C(C)C)C(C)C)C(C)C` [compound 8583] (For-VGA[dL]A[dD](NHMe)V[dV]W[dV]W[dL]W[dV]W-NHCH2CH2OH): in data set [1], the “H+/Na+ transport activity normalized against the value of 1 (1.00)” value (“H+/Na+ transport activity normalized” below) came to 1.15. Also, the viability in data set [2] was determined as 63.4%. Besides, in data set [3], the antibacterial activity result is recorded as “-”.

`CC(C)C[C@@H](NC(=O)[C@H](C)NC(=O)CNC(=O)[C@@H](NC=O)C(C)C)C(=O)N[C@@H](C)C(=O)N[C@H](CC(C)C)C(=O)N[C@H](C(=O)N[C@@H](C(=O)N[C@@H](Cc1c[nH]c2ccccc12)C(=O)N[C@H](CC(C)C)C(=O)N[C@@H](Cc1c[nH]c2ccccc12)C(=O)N[C@@H](C(=O)N[C@@H](Cc1c[nH]c2ccccc12)C(=O)N[C@H](CC(C)C)C(=O)N[C@@H](Cc1c[nH]c2ccccc12)C(=O)NCCO)C(C)C)[C@H](C)O)C(C)C` [compound 8604] (For-VGA[dL]A[dL]V[dT]W[dL]W[dV]W[dL]W-NHCH2CH2OH): the “H+/Na+ transport activity normalized” value in data set [1] is reported as 1.08. This compound also gave a viability in data set [2] of 54.4%. In data set [3], the antibacterial activity result was “-”.

For `CC(C)C[C@@H](NC(=O)[C@H](C)NC(=O)CNC(=O)[C@@H](NC=O)C(C)C)C(=O)N[C@@H](C)C(=O)N[C@@H](C(=O)N[C@H](C(=O)N[C@@H](C(=O)N[C@@H](Cc1c[nH]c2ccccc12)C(=O)N[C@@H](C(=O)N[C@@H](Cc1c[nH]c2ccccc12)C(=O)N[C@H](CC(C)C)C(=O)N[C@@H](Cc1c[nH]c2ccccc12)C(=O)N[C@H](CC(C)C)C(=O)N[C@@H](Cc1c[nH]c2ccccc12)C(=O)NCCO)C(C)C)C(C)C)C(C)C)[C@H](C)O` [compound 8755] (For-VGA[dL]A[dT]V[dV]W[dV]W[dL]W[dL]W-NHCH2CH2OH), in data set [1], the “H+/Na+ transport activity normalized” value was found to be 1.10. The compound also displayed a viability in data set [2] of 67.3%. For the same compound, the antibacterial activity entry in data set [3] is “-”.

With `CC(C)C[C@@H](NC(=O)[C@H](Cc1c[nH]c2ccccc12)NC(=O)[C@@H](CC(C)C)NC(=O)[C@H](Cc1c[nH]c2ccccc12)NC(=O)[C@H](NC(=O)[C@H](Cc1c[nH]c2ccccc12)NC(=O)[C@@H](CC(C)C)NC(=O)[C@@H](NC(=O)[C@H](NC(=O)[C@H](C)NC(=O)[C@H](NC(=O)[C@H](C)NC(=O)CNC(=O)[C@@H](NC=O)C(C)C)[C@H](C)O)C(C)C)C(C)C)C(C)C)C(=O)N[C@@H](Cc1c[nH]c2ccccc12)C(=O)NCCO` [compound 8827] (For-VGA[dT]A[dV]V[dL]W[dV]W[dL]W[dL]W-NHCH2CH2OH), in data set [1], the “H+/Na+ transport activity normalized” value was determined as 1.22. In data set [2], this compound displayed a viability of 80.7%. Also, in data set [3], the antibacterial activity entry is “-”.

`CC(C)C[C@@H](NC(=O)[C@H](Cc1c[nH]c2ccccc12)NC(=O)[C@H](NC(=O)[C@@H](NC(=O)[C@H](NC(=O)[C@H](C)NC(=O)[C@H](NC(=O)[C@H](C)NC(=O)CNC(=O)[C@@H](NC=O)C(C)C)C(C)C)[C@H](C)O)C(C)C)C(C)C)C(=O)N[C@@H](Cc1c[nH]c2ccccc12)C(=O)N[C@@H](C(=O)N[C@@H](Cc1c[nH]c2ccccc12)C(=O)N[C@@H](C(=O)N[C@@H](Cc1c[nH]c2ccccc12)C(=O)NCCO)C(C)C)C(C)C` [compound 9055] (For-VGA[dV]A[dT]V[dV]W[dL]W[dV]W[dV]W-NHCH2CH2OH): the “H+/Na+ transport activity normalized” value in data set [1] was determined as 1.01. Besides, the viability in data set [2] came out at 83.5%. For the same compound, the antibacterial activity result in data set [3] is recorded as “-”.

In the case of `CC(C)C[C@@H](NC(=O)[C@H](C)NC(=O)CNC(=O)[C@@H](NC=O)C(C)C)C(=O)N[C@@H](C)C(=O)N[C@@H](C(=O)N[C@H](C(=O)N[C@@H](C(=O)N[C@@H](Cc1c[nH]c2ccccc12)C(=O)N[C@H](CC(C)C)C(=O)N[C@@H](Cc1c[nH]c2ccccc12)C(=O)N[C@H](CC(C)C)C(=O)N[C@@H](Cc1c[nH]c2ccccc12)C(=O)N[C@H](CC(C)C)C(=O)N[C@@H](Cc1c[nH]c2ccccc12)C(=O)NCCO)C(C)C)C(C)C)[C@H](C)O` [compound 9098] (For-VGA[dL]A[dT]V[dV]W[dL]W[dL]W[dL]W-NHCH2CH2OH), the “H+/Na+ transport activity normalized” value in data set [1] was determined as 1.13. The compound also yielded a viability in data set [2] of 51%. For the same compound, the antibacterial activity entry in data set [3] is reported as “-”.

As for `CC(C)C[C@@H](NC(=O)[C@H](C)NC(=O)[C@H](NC(=O)[C@H](C)NC(=O)CNC(=O)[C@@H](NC=O)C(C)C)C(C)C)C(=O)N[C@H](C(=O)N[C@@H](C(=O)N[C@@H](Cc1c[nH]c2ccccc12)C(=O)N[C@H](CC(C)C)C(=O)N[C@@H](Cc1c[nH]c2ccccc12)C(=O)N[C@@H](C(=O)N[C@@H](Cc1c[nH]c2ccccc12)C(=O)N[C@H](CC(C)C)C(=O)N[C@@H](Cc1c[nH]c2ccccc12)C(=O)NCCO)[C@H](C)O)C(C)C)C(C)C` [compound 9177] (For-VGA[dV]A[dL]V[dV]W[dL]W[dT]W[dL]W-NHCH2CH2OH), in data set [1], the “H+/Na+ transport activity normalized” value is 1.05. In data set [2], this compound displayed a viability of 61.7%. Also, the antibacterial activity result in data set [3] is reported as “-”.

For the compound `CC(C)C[C@@H](NC(=O)[C@H](C)NC(=O)[C@H](NC(=O)[C@H](C)NC(=O)CNC(=O)[C@@H](NC=O)C(C)C)C(C)C)C(=O)N[C@H](C(=O)N[C@H](CC(C)C)C(=O)N[C@@H](Cc1c[nH]c2ccccc12)C(=O)N[C@H](CC(C)C)C(=O)N[C@@H](Cc1c[nH]c2ccccc12)C(=O)N[C@@H](C(=O)N[C@@H](Cc1c[nH]c2ccccc12)C(=O)N[C@@H](C(=O)N[C@@H](Cc1c[nH]c2ccccc12)C(=O)NCCO)C(C)C)C(C)C)C(C)C` [compound 9247] (For-VGA[dV]A[dL]V[dL]W[dL]W[dV]W[dV]W-NHCH2CH2OH), the “H+/Na+ transport activity normalized” value in data set [1] was determined as 1.02. Further, the viability in data set [2] was found to be 6%. Moreover, the antibacterial activity result in data set [3] is on record as “+”.

Turning to `CC(C)C[C@@H](NC(=O)[C@H](C)NC(=O)CNC(=O)[C@@H](NC=O)C(C)C)C(=O)N[C@@H](C)C(=O)N[C@H](CC(C)C)C(=O)N[C@H](C(=O)N[C@@H](C(=O)N[C@@H](Cc1c[nH]c2ccccc12)C(=O)N[C@@H](C(=O)N[C@@H](Cc1c[nH]c2ccccc12)C(=O)N[C@H](CC(C)C)C(=O)N[C@@H](Cc1c[nH]c2ccccc12)C(=O)N[C@@H](C(=O)N[C@@H](Cc1c[nH]c2ccccc12)C(=O)NCCO)[C@H](C)O)C(C)C)C(C)C)C(C)C` [compound 9823] (For-VGA[dL]A[dL]V[dV]W[dV]W[dL]W[dT]W-NHCH2CH2OH), the “H+/Na+ transport activity normalized” value in data set [1] turned out to be 1.08. The viability in data set [2] is 100%. Besides, the antibacterial activity result in data set [3] is reported as “-”.

On to `CNC(=O)C[C@@H](NC(=O)[C@H](Cc1c[nH]c2ccccc12)NC(=O)[C@H](NC(=O)[C@H](Cc1c[nH]c2ccccc12)NC(=O)[C@H](NC(=O)[C@H](Cc1c[nH]c2ccccc12)NC(=O)[C@H](NC(=O)[C@@H](NC(=O)[C@@H](CC(C)C)NC(=O)[C@H](C)NC(=O)[C@@H](CC(C)C)NC(=O)[C@H](C)NC(=O)CNC(=O)[C@@H](NC=O)C(C)C)C(C)C)C(C)C)C(C)C)C(C)C)C(=O)N[C@@H](Cc1c[nH]c2ccccc12)C(=O)NCCO` [compound 10002] (For-VGA[dL]A[dL]V[dV]W[dV]W[dV]W[dD](NHMe)W-NHCH2CH2OH), for which the “H+/Na+ transport activity normalized” value in data set [1] worked out at 1.01. In data set [2], the viability is 100%. In addition, the antibacterial activity result in data set [3] is listed as “-”.

In the case of `CC(C)C[C@@H](NC(=O)[C@H](Cc1c[nH]c2ccccc12)NC(=O)[C@@H](CC(C)C)NC(=O)[C@H](Cc1c[nH]c2ccccc12)NC(=O)[C@H](NC(=O)[C@H](Cc1c[nH]c2ccccc12)NC(=O)[C@H](NC(=O)[C@@H](NC(=O)[C@H](NC(=O)[C@H](C)NC(=O)[C@H](NC(=O)[C@H](C)NC(=O)CNC(=O)[C@@H](NC=O)C(C)C)C(C)C)C(C)C)C(C)C)C(C)C)[C@H](C)O)C(=O)N[C@@H](Cc1c[nH]c2ccccc12)C(=O)NCCO` [compound 10042] (For-VGA[dV]A[dV]V[dV]W[dT]W[dL]W[dL]W-NHCH2CH2OH), the “H+/Na+ transport activity normalized” value in data set [1] came out at 1.06. Also, in data set [2], the viability came to 100%. Besides, in data set [3], the antibacterial activity entry is on record as “-”.

As to `CC(C)C[C@@H](NC(=O)[C@H](C)NC(=O)[C@H](NC(=O)[C@H](C)NC(=O)CNC(=O)[C@@H](NC=O)C(C)C)[C@H](C)O)C(=O)N[C@H](C(=O)N[C@@H](C(=O)N[C@@H](Cc1c[nH]c2ccccc12)C(=O)N[C@H](CC(C)C)C(=O)N[C@@H](Cc1c[nH]c2ccccc12)C(=O)N[C@@H](C(=O)N[C@@H](Cc1c[nH]c2ccccc12)C(=O)N[C@H](CC(C)C)C(=O)N[C@@H](Cc1c[nH]c2ccccc12)C(=O)NCCO)C(C)C)C(C)C)C(C)C` [compound 10313] (For-VGA[dT]A[dL]V[dV]W[dL]W[dV]W[dL]W-NHCH2CH2OH), the “H+/Na+ transport activity normalized” value in data set [1] came out at 1.11. Moreover, in data set [2], the viability worked out at 100%. The antibacterial activity entry in data set [3] was “-”.
